From patent US20180185490A1 (R&D PHARMA, priority 2017, published 2018)

Key:
[1] = Irritation of eyes and mucous membranes; assay type: in vivo; details: pure or concentrated GBL
Description: (§1) Its tolerance in subungual and periungual application is good and perfectly compatible with the desired therapeutic effect.

rat = details: by mouth; cited from earlier work
DNA = details: cited from earlier work
[2] = Tolerance in subungual and periungual application; assay type: in vivo
Description: as §1

Compound: O=C1CCCO1 [GBL, gamma-butyrolactone]
- irritation of eyes and mucous membranes [1]: irritating to the eyes and the mucous membranes
- LD50 (rat): 17.2 mL/kg
- alteration of DNA (DNA): no alteration of DNA
- tolerance in subungual and periungual application [2]: good
